Laboratory results published in patent US20060270656A1, “Substituted piperazines of azepines, oxazepines and thiazepines” (ELI LILLY AND COMPANY, priority 2003, published 2006).
Where a name gives a salt, the structure may show the parent alone.

| SMILES | melting point |
| --- | --- |
| CC(=O)c1nc2c(s1)Sc1ccccc1N=C2N1CCN(C)[C@@H](CCc2cccc(F)c2)C1.Cl.Cl | 130 to 132 °C |
| COCC[C@H]1CN(C2=Nc3ccccc3Sc3scnc32)CCN1C (as salt: hydrochloride) | 146 to 148 °C |
| CCc1cc2c(s1)Sc1ccccc1N=C2N1CCN(C)[C@@H](CCOC)C1.Cl.Cl | 181 to 187 °C |
| CCc1nc2c(s1)Sc1ccccc1N=C2N1CCN(C)[C@@H](CCc2cccc(F)c2)C1.Cl | 133 to 135 °C |
| COCC[C@H]1CN(C2=Nc3ccccc3Sc3sc(C(C)=O)nc32)CCN1C.Cl.Cl | 138 to 140 °C |
| COCC[C@H]1CN(C2=Nc3ccccc3Sc3sc(C(C)C)cc32)CCN1C.Cl.Cl | 143 to 147 °C (dec.) |
| CCc1nc2c(s1)Sc1ccccc1N=C2N1CCN(C)[C@@H](CCc2ccc(OC)cc2)C1.Cl | 129 to 130 °C |

Second part, the molecule after the results:

| melting point | SMILES |
| --- | --- |
| 48 to 59 °C | c1ccc(CC[C@H]2CN(C3=Nc4ccccc4Sc4ccccc43)CCN2)cc1 |
| 46 to 63 °C | CN1CCN(C2=Nc3ccccc3Sc3ccccc32)C[C@H]1Cc1ccccc1 |
| 56 to 69 °C | c1ccc(C[C@@H]2CN(C3=Nc4ccccc4Sc4ccccc43)CCN2)cc1 |
| 48 to 64 °C | CN1CCN(C2=Nc3ccccc3Sc3ccccc32)C[C@@H]1Cc1ccccc1 |
| 54 to 71 °C | c1ccc(C[C@H]2CN(C3=Nc4ccccc4Sc4ccccc43)CCN2)cc1 |
| 149 to 152 °C (dec.) | COCC[C@H]1CN(C2=Nc3ccccc3Sc3sc(C(C)C)cc32)CCN1.Cl.Cl |
| 184 to 186 °C | COCC[C@H]1CN(C2=Nc3ccccc3Sc3scnc32)CCN1 (as salt: hydrochloride) |
| 44 to 54 °C | CN1CCN(C2=Nc3ccccc3Sc3ccccc32)C[C@@H]1CCc1ccccc1 |
